In this experiment the target is T1, rat APJ receptor (Rattus norvegicus, UniProt Q9JHG3).
T1 construct: expressed in transfected cells
T1 sequence (Q9JHG3 1-377): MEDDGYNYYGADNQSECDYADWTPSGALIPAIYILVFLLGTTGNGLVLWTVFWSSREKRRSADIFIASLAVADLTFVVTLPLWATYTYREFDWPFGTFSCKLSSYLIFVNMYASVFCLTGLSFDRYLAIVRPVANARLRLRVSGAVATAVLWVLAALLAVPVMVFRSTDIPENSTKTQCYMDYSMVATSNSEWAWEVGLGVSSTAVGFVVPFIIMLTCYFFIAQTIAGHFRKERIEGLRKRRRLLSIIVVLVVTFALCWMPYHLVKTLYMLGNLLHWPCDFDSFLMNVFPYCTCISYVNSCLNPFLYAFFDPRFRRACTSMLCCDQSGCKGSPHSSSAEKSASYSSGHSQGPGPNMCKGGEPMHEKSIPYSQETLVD
In words: [35S] GTPγS assay, rat APJ receptor. In kind it is biochemical. Here is the method:
The membranes were incubated with modified peptides in the assay buffer. […] Bound [^35S] GTPγS was separated from free radiolabel by filtration. The filter bound radioactivity was determined by liquid scintillation counting.

[1] abbreviates: rat APJ receptor, read-out: EC50 Rat APJ Receptor.

This is an account of results in patent US11807693B2 (priority 2014, dated 2023).

Where two headings read alike, the source gives them in different places. Starred links: 1 amine or outer side, 2 acyl side, 3 side chain; linkers in the order of their positions; H or OH if unused. Non-standard residues stand in square brackets, D forms with d. Residues, ends and D or L forms follow the SMILES beside them. *: point of attachment. dBip = N[C@H](Cc1ccc(-c2ccccc2)cc1)C(=O)O; Oic = O=C(O)[C@@H]1C[C@@H]2CCCC[C@@H]2N1; Phe(4-I) = N[C@@H](Cc1ccc(I)cc1)C(=O)O; γGlu = O=C(O)[C@H](CCC(=O)[*:2])N[*:1]; 2Nal = N[C@@H](Cc1ccc2ccccc2c1)C(=O)O; d(β3hF) = N[C@@H](CC(=O)O)Cc1ccccc1; NMeR = CN[C@@H](CCCNC(=N)N)C(=O)O; Palmitoyl = CCCCCCCCCCCCCCCC(=O)*; Tridecanoyl = CCCCCCCCCCCCC(=O)*; X1 = O=C(CN(C1CCNCC1)[*:1])[*:2]; hArg = N=C(N)NCCCC[C@H](N)C(=O)O; 3Pal = N[C@@H](Cc1cccnc1)C(=O)O; Cha = N[C@@H](CC1CCCCC1)C(=O)O; NMeL = CN[C@@H](CC(C)C)C(=O)O; β3hP = O=C(O)C[C@@H]1CCCN1; Nle = CCCC[C@H](N)C(=O)O; AEEA = NCCOCCOCC(=O)O

The term EC50 denotes the concentration needed to bring the measured effect to its halfway point. In the case of `CCCCCCCCCC(=O)N[C@@H](CCC(=O)NCCOCCOCC(=O)NCCOCCOCC(=O)N[C@@H](CCC(N)=O)C(=O)N[C@@H](CCCNC(=N)N)C(=O)N1CCC[C@H]1C(=O)N(C)[C@@H](CCCNC(=N)N)C(=O)N[C@@H](CC(C)C)C(=O)N[C@@H](CO)C(=O)N[C@@H](Cc1c[nH]cn1)C(=O)N[C@@H](CCCCN)C(=O)NCC(=O)N1CCC[C@H]1C(=O)N[C@@H](CCCC)C(=O)N1CCC[C@H]1C(=O)N[C@@H](Cc1ccc(Cl)cc1)C(=O)O)C(=O)O` [compound 494], the EC50 under setting [1] came to 0.147 nM. Same read-out and setting: to `CSCC[C@H](NC(=O)[C@@H]1CCCN1C(=O)CNC(=O)[C@H](CCCCN)NC(=O)[C@H](Cc1c[nH]cn1)NC(=O)[C@H](CO)NC(=O)[C@H](CC(C)C)NC(=O)[C@H](CCCNC(=N)N)NC(=O)[C@@H]1CCCN1C(=O)[C@H](CCCNC(=N)N)NC(=O)[C@H](CCC(N)=O)NC(=O)[C@H](CCCNC(=N)N)NC(=O)[C@H](CCCNC(=N)N)NC(=O)[C@H](Cc1ccccc1)NC(=O)[C@@H](N)CCCCN)C(=O)N1CCC[C@H]1C(=O)O` [compound 12] belongs 5.81 nM.

In the case of `CCCCCCCCCCCCC(=O)N[C@@H](CCC(=O)NCCOCCOCC(=O)NCCOCCOCC(=O)N[C@@H](CCC(N)=O)C(=O)N[C@@H](CCCNC(=N)N)C(=O)N1CCC[C@H]1C(=O)N(C)[C@@H](CCCNC(=N)N)C(=O)N[C@@H](CC(C)C)C(=O)N[C@@H](CO)C(=O)N[C@@H](Cc1c[nH]cn1)C(=O)N[C@@H](CCCCN)C(=O)NCC(=O)N1CCC[C@H]1C(=O)N[C@@H](CCCC)C(=O)N[C@@H](Cc1ccc2ccccc2c1)C(=O)O)C(=O)O` [compound 403] ({Tridecanoyl-γGlu-AEEA-AEEA}-QRP[NMeR]LSHKGP[Nle][2Nal]-OH), the EC50 (Table 16, read-out: EC50 Rat APJ Receptor) was 8.1 nM. For `CCCCCCCCCCCCCCCC(=O)N[C@@H](CCC(=O)NCCOCCOCC(=O)NCCOCCOCC(=O)N[C@H](CCC(N)=O)C(=O)N[C@@H](CCCNC(=N)N)C(=O)N1CCC[C@H]1C(=O)N(C)[C@@H](CCCNC(=N)N)C(=O)N[C@@H](CC1CCCCC1)C(=O)N[C@@H](CO)C(=O)N[C@@H](Cc1c[nH]cn1)C(=O)N[C@@H](Cc1cccnc1)C(=O)NCC(=O)N1[C@H](C(=O)N[C@@H](CCCC)C(=O)N2CCC[C@H]2CC(=O)N[C@@H](CC(=O)O)Cc2ccccc2)C[C@@H]2CCCC[C@@H]21)C(=O)O` [compound 620] ({Palmitoyl-γGlu-AEEA-AEEA}-[dQ]RP[NMeR][Cha]SH[3Pal]G[Oic][Nle][β3hP][d(β3hF)]-OH), the EC50 under setting [1] was determined as 14.9 nM.

Regarding `CC(=O)N[C@@H](CCCCNC(=N)N)C(=O)N[C@@H](CCCCNC(=N)N)C(=O)N[C@@H](CCC(N)=O)C(=O)N[C@@H](CCCCNC(=N)N)C(=O)N1[C@H](C(=O)N[C@H](CCCNC(=N)N)C(=O)N(C)[C@@H](CC(C)C)C(=O)N[C@@H](CO)C(=O)N[C@@H](Cc2c[nH]cn2)C(=O)N[C@@H](CCCCN)C(=O)NCC(=O)N2[C@H](C(=O)N[C@@H](Cc3ccc(I)cc3)C(=O)N3CCC[C@H]3C(=O)N[C@H](Cc3ccc(-c4ccccc4)cc3)C(=O)O)C[C@@H]3CCCC[C@@H]32)C[C@@H]2CCCC[C@@H]21` [compound 21] (Ac-[hArg][hArg]Q[hArg][Oic][dR][NMeL]SHKG[Oic][Phe(4-I)]P[dBip]-OH), under “read-out: EC50 Rat APJ Receptor”, the EC50 was 1.8 nM. For “{H2}[MerPr](10K mPEGacetamide)QRPRLSHKGPMPF{COOH} (N-terminal MerPr 10K mPEG acetamide; source: /note="N-term MerPr(10KmPEGacetamide)") [SEQ ID NO: 110, reference compound]”, the EC50 (aqueous stock, absence of DMSO, read-out: rAPJ EC50) was 390 nM. On to `CCCCCCCCCCCCCCCC(=O)N[C@@H](CCC(=O)NCCOCCOCC(=O)NCCOCCOCC(=O)N[C@H](CCC(N)=O)C(=O)N[C@@H](CCCNC(=N)N)C(=O)N1CCC[C@H]1C(=O)N(C)[C@@H](CCCNC(=N)N)C(=O)N[C@@H](CC1CCCCC1)C(=O)N[C@@H](CO)C(=O)N[C@@H](Cc1c[nH]cn1)C(=O)N(CC(=O)NCC(=O)N1[C@H](C(=O)N[C@@H](CCCC)C(=O)N2CCC[C@H]2CC(=O)N[C@@H](CC(=O)O)Cc2ccccc2)C[C@@H]2CCCC[C@@H]21)C1CCNCC1)C(=O)O` [compound 633] ({Palmitoyl-γGlu-AEEA-AEEA}-[dQ]RP[NMeR][Cha]SH[X1]G[Oic][Nle][β3hP][d(β3hF)]-OH), for which the EC50 under setting [1] is greater than 4170 nM.
